Data as given in patent US20210369853A1, “TARGETED PROTEASE DEGRADATION PLATFORM” (EUBULUS BIOTHERAPEUTICS INC., priority 2018, published 2021).
Read-outs that look alike come from different tables or passages of the source.

What was measured:
Assay type in all cases: cell-based
[1] = tested on: Human Monocytic Leukemia MV4-11; assay: Cell proliferation experiment (Alarm blue, 72 h, EC50)
Summary of the method: (§1)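 Duplicate wells per concentration, 5-fold dilution series, 72 h continuous exposure of log-phase cells; read-out Alamar blue fluorescence, EC50 derived by curve fit with minimum, maximum and slope terms.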

[2] = tested on: Human cervical adenocarcinoma cells Hela; assay: as above
Summary of the method: as §1

[3] = target: T1, BRD4 (Homo sapiens, UniProt O60885); assay: Western blot, protein degradation (DC50); conditions: 6 h, western blot; read-out: BRD4 DC50 (6 h)
T1 construct: endogenous in cells
Description: (§2) Cells were treated with the compound for a period of time, after that the cells were collected by centrifugation. After washing with PBS, the cells were lysed by adding RIPA buffer; the cell lysate were added to the loading buffer and then appropriate volume were taken and slowly added to the corresponding wells of the gel plate, and run the SDS-PAGE gel (4%-12%). After running the gel, transferred to the PVDF membrane and sealed with 5% skimmed milk powder at room temperature for 1 hour. The membrane was placed in the primary antibody diluted with 5% skimmed milk powder and shaked slowly overnight at 4° C. After incubation with primary antibody, the membrane was washed 3 times using a TBST shaker; added secondary antibody diluted with 5% skimmed milk powder corresponding to the primary antibody, and shaked slowly at room temperature for 1 hour. After incubation with secondary antibody, the membrane was washed 3 times using the TBST shaker again. The PVDF membrane was flatted in the cassette, the strip was evenly infiltrated with ECL developer solution, and placed in ChemDoc XRS+ gel imager for taking pictures. The intensity of protein bands was analyzed quantitatively using ImageJ software.

[4] = target: T2, PLK1 (Homo sapiens, UniProt P53350); assay: Western blot, protein degradation (DC50); conditions: 6 h, western blot; read-out: PLK1 DC50 (6 h)
T2 construct: endogenous in cells
T2 sequence (P53350 whole entry): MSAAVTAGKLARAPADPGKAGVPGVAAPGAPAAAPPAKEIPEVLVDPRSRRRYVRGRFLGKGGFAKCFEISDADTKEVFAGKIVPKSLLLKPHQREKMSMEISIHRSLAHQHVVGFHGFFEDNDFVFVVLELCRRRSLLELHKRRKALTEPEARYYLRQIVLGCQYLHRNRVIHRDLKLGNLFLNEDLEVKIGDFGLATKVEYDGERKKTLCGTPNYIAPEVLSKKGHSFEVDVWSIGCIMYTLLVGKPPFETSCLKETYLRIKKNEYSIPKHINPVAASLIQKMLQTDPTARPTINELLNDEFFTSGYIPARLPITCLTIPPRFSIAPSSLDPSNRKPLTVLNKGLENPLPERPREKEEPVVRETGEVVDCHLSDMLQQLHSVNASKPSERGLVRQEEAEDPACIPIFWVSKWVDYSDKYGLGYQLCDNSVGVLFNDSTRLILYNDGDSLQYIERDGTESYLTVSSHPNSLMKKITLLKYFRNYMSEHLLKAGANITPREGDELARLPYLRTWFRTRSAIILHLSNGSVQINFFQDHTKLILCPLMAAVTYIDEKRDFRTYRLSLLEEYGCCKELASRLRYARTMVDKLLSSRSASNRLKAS
Description: as §2

[5] = tested on: Human Colon Cancer HCT-116; assay: Cell proliferation experiment (Alarm blue, 72 h, EC50); conditions: HCT116 cells
Summary of the method: as §1

[6] = tested on: Human Small Cell Lung Cancer NCI-H82; assay: as above; conditions: NCIH82 cells
Summary of the method: as §1

[7] = Homo sapiens, MV4-11, MV4;11 cells

Row | EC50 [1, 7] | EC50 ([2]; Homo sapiens) | SMILES | also measured
1 | 10 to 100 nM | > 1000 nM | CC[C@@H]1c2nncn2-c2cnc(Nc3ccc(C(=O)NCCOCCOCCOCCOCC(=O)N[C@H](C(=O)N4C[C@H](O)C[C@H]4C(=O)NCc4ccc(-c5scnc5C)cc4)C(C)(C)C)cc3OC)nc2N1C1CCCC1 [UB-180523] | DC50 [3]: > 1000 nM; DC50 [4]: > 1000 nM
2 | 10 to 100 nM | > 1000 nM | CC[C@@H]1c2c(C#N)ncn2-c2cnc(Nc3ccc(C(=O)NCCOCCOCCOCCOCC(=O)N[C@H](C(=O)N4C[C@H](O)C[C@H]4C(=O)NCc4ccc(-c5scnc5C)cc4)C(C)(C)C)cc3OC)nc2N1C1CCCC1 [UB-180525] | DC50 [3]: > 1000 nM; DC50 [4]: > 1000 nM
3 | 10 to 100 nM | > 1000 nM | CC[C@@H]1c2c(C#N)ncn2-c2cnc(Nc3ccc(C(=O)NCCOCCOCCOCCC(=O)N[C@H](C(=O)N4C[C@H](O)C[C@H]4C(=O)NCc4ccc(-c5scnc5C)cc4)C(C)(C)C)cc3OC)nc2N1C1CCCC1 [UB-180529] | DC50 [3]: > 1000 nM; DC50 [4]: > 1000 nM
4 | 10 to 100 nM | > 1000 nM | CC[C@@H]1c2c(C#N)ncn2-c2cnc(Nc3ccc(C(=O)NCCOCC(=O)N[C@H](C(=O)N4C[C@H](O)C[C@H]4C(=O)NCc4ccc(-c5scnc5C)cc4)C(C)(C)C)cc3OC)nc2N1C1CCCC1 [UB-180544] | –
5 | 100 to 1000 nM | > 1000 nM | CC[C@@H]1c2c(C#N)ncn2-c2cnc(Nc3ccc(C(=O)NCCOCCOCCOCC(=O)Nc4cccc5c4CN(C4CCC(=O)NC4=O)C5=O)cc3OC)nc2N1C1CCCC1 (stereo partly drawn) [UB-180545] | –
6 | > 1000 nM | > 1000 nM | CC[C@@H]1c2nncn2-c2cnc(Nc3ccc(C(=O)NCCOCCOCCOCC(=O)Nc4cccc5c4CN(C4CCC(=O)NC4=O)C5=O)cc3OC)nc2N1C1CCCC1 (stereo partly drawn) [UB-180546] | –
7 | > 1000 nM | > 1000 nM | CC[C@@H]1c2nncn2-c2cnc(Nc3ccc(C(=O)NCCOCCOCCC(=O)Nc4cccc5c4CN(C4CCC(=O)NC4=O)C5=O)cc3OC)nc2N1C1CCCC1 (stereo partly drawn) [UB-180547] | –
8 | > 1000 nM | > 1000 nM | CC[C@@H]1c2c(C#N)ncn2-c2cnc(Nc3ccc(C(=O)NCCOCCOCCOCCC(=O)Nc4cccc5c4CN(C4CCC(=O)NC4=O)C5=O)cc3OC)nc2N1C1CCCC1 (stereo partly drawn) [UB-180548] | –
9 | > 1000 nM | > 1000 nM | CC[C@@H]1c2nncn2-c2cnc(Nc3ccc(C(=O)NCCOCCOCCOCCC(=O)Nc4cccc5c4CN(C4CCC(=O)NC4=O)C5=O)cc3OC)nc2N1C1CCCC1 (stereo partly drawn) [UB-180549] | –
10 | > 1000 nM | > 1000 nM | CC[C@@H]1c2nncn2-c2cnc(Nc3ccc(C(=O)NCCOCCOCCC(=O)N[C@H](C(=O)N4C[C@H](O)C[C@H]4C(=O)NCc4ccc(-c5scnc5C)cc4)C(C)(C)C)cc3OC)nc2N1C1CCCC1 [UB-180550] | –
11 | > 1000 nM | > 1000 nM | CC[C@@H]1c2c(C#N)ncn2-c2cnc(Nc3ccc(C(=O)NCCOCCOCCOCCOCCC(=O)Nc4cccc5c4CN(C4CCC(=O)NC4=O)C5=O)cc3OC)nc2N1C1CCCC1 (stereo partly drawn) [UB-180551] | –
12 | 100 to 1000 nM | > 1000 nM | CC[C@@H]1c2c(C#N)ncn2-c2cnc(Nc3ccc(C(=O)NCCOCCOCCOCCOCCC(=O)N[C@H](C(=O)N4C[C@H](O)C[C@H]4C(=O)NCc4ccc(-c5scnc5C)cc4)C(C)(C)C)cc3OC)nc2N1C1CCCC1 [UB-180552] | –
13 | 100 to 1000 nM | > 1000 nM | CC[C@@H]1c2nncn2-c2cnc(Nc3ccc(C(=O)NCCOCCOCCOCCOCCC(=O)N[C@H](C(=O)N4C[C@H](O)C[C@H]4C(=O)NCc4ccc(-c5scnc5C)cc4)C(C)(C)C)cc3OC)nc2N1C1CCCC1 [UB-180553] | –
14 | 10 to 100 nM | > 1000 nM | CC[C@@H]1c2nncn2-c2cnc(Nc3ccc(C(=O)NCCCCOCC(=O)N[C@H](C(=O)N4C[C@H](O)C[C@H]4C(=O)NCc4ccc(-c5scnc5C)cc4)C(C)(C)C)cc3OC)nc2N1C1CCCC1 [UB-180555] | –
15 | > 1000 nM | > 1000 nM | CC[C@@H]1c2nncn2-c2cnc(Nc3ccc(C(=O)NCCOCCOCC(=O)Nc4cccc5c4CN(C4CCC(=O)NC4=O)C5=O)cc3OC)nc2N1C1CCCC1 (stereo partly drawn) [UB-180556] | –
16 | 100 to 1000 nM | > 1000 nM | CC[C@@H]1c2c(C#N)ncn2-c2cnc(Nc3ccc(C(=O)NCCOCCOCC(=O)Nc4cccc5c4CN(C4CCC(=O)NC4=O)C5=O)cc3OC)nc2N1C1CCCC1 (stereo partly drawn) [UB-180557] | –
17 | 100 to 1000 nM | > 1000 nM | CC[C@@H]1c2c(C#N)ncn2-c2cnc(Nc3ccc(C(=O)NCCOCCOCCOCCOCC(=O)Nc4cccc5c4CN(C4CCC(=O)NC4=O)C5=O)cc3OC)nc2N1C1CCCC1 (stereo partly drawn) [UB-180560] | –
18 | – | – | CC[C@@H]1c2nncn2-c2cnc(Nc3ccc(C(=O)NCCOCCOCCOCCOCC(=O)Nc4cccc5c4CN(C4CCC(=O)NC4=O)C5=O)cc3OC)nc2N1C1CCCC1 (stereo partly drawn) [UB-180561] | EC50 ([1]; MV4;11 cells): > 1000 nM; EC50 [2]: > 1000 nM
19 | > 1000 nM | > 1000 nM | CC[C@@H]1c2nncn2-c2cnc(Nc3ccc(C(=O)NCCOCCOCCOCCOCCC(=O)Nc4cccc5c4CN(C4CCC(=O)NC4=O)C5=O)cc3OC)nc2N1C1CCCC1 (stereo partly drawn) [UB-180562] | –
20 | 100 to 1000 nM | > 1000 nM | CC[C@@H]1c2c(C#N)ncn2-c2cnc(Nc3ccc(C(=O)NCCOCCOCC(=O)N[C@H](C(=O)N4C[C@H](O)C[C@H]4C(=O)NCc4ccc(-c5scnc5C)cc4)C(C)(C)C)cc3OC)nc2N1C1CCCC1 [UB-180563] | –
21 | 100 to 1000 nM | > 1000 nM | CC[C@@H]1c2nncn2-c2cnc(Nc3ccc(C(=O)NCCOCCOCC(=O)N[C@H](C(=O)N4C[C@H](O)C[C@H]4C(=O)NCc4ccc(-c5scnc5C)cc4)C(C)(C)C)cc3OC)nc2N1C1CCCC1 [UB-180564] | –
22 | – | – | CC[C@@H]1C(=O)N(C)c2cnc(Nc3ccc(C(=O)NCCOCCNCCCC(=O)Nc4cccc5c4CN(C4CCC(=O)NC4=O)C5=O)cc3OC)nc2N1Cc1ccc(Br)cc1 (stereo partly drawn) [UB-180626] | EC50 [5]: > 1000 nM; EC50 ([1]; MV4;11 cells): 10 to 100 nM; EC50 [6]: > 1000 nM
23 | 10 to 100 nM | – | CC[C@@H]1C(=O)N(C)c2cnc(Nc3ccc(C(=O)NCCCNCCCCCCCC(=O)Nc4cccc5c4CN(C4CCC(=O)NC4=O)C5=O)cc3OC)nc2N1Cc1ccc(Br)cc1 (stereo partly drawn) [UB-180628] | EC50 ([5]; Homo sapiens, HCT-116): > 1000 nM; EC50 ([6]; Homo sapiens, NCI-H82): > 1000 nM
24 | 10 to 100 nM | – | CC[C@@H]1C(=O)N(C)c2cnc(Nc3ccc(C(=O)NCCCNCCCC(=O)Nc4cccc5c4CN(C4CCC(=O)NC4=O)C5=O)cc3OC)nc2N1Cc1ccc(Br)cc1 (stereo partly drawn) [UB-180637] | EC50 ([5]; Homo sapiens, HCT-116): > 1000 nM; EC50 ([6]; Homo sapiens, NCI-H82): > 1000 nM
25 | 10 to 100 nM | – | CC[C@@H]1C(=O)N(C)c2cnc(Nc3ccc(C(=O)NCCCNCCCCC(=O)Nc4cccc5c4CN(C4CCC(=O)NC4=O)C5=O)cc3OC)nc2N1Cc1ccc(Br)cc1 (stereo partly drawn) [UB-180638] | EC50 ([5]; Homo sapiens, HCT-116): > 1000 nM; EC50 ([6]; Homo sapiens, NCI-H82): > 1000 nM
26 | 10 to 100 nM | – | CC[C@@H]1C(=O)N(C)c2cnc(Nc3ccc(C(=O)NCCCNCCCCCC(=O)Nc4cccc5c4CN(C4CCC(=O)NC4=O)C5=O)cc3OC)nc2N1Cc1ccc(Br)cc1 (stereo partly drawn) [UB-180639] | EC50 ([5]; Homo sapiens, HCT-116): > 1000 nM; EC50 ([6]; Homo sapiens, NCI-H82): > 1000 nM
27 | 10 to 100 nM | – | CC[C@@H]1C(=O)N(C)c2cnc(Nc3ccc(C(=O)NCCOCCNCCCCCC(=O)Nc4cccc5c4CN(C4CCC(=O)NC4=O)C5=O)cc3OC)nc2N1Cc1ccc(Br)cc1 (stereo partly drawn) [UB-180643] | EC50 ([5]; Homo sapiens, HCT-116): 100 to 1000 nM; EC50 ([6]; Homo sapiens, NCI-H82): > 1000 nM
28 | 10 to 100 nM | – | CC[C@@H]1C(=O)N(C)c2cnc(Nc3ccc(C(=O)NCCOCCOCCOCCNCCCCCC(=O)Nc4cccc5c4CN(C4CCC(=O)NC4=O)C5=O)cc3OC)nc2N1Cc1ccc(Br)cc1 (stereo partly drawn) [UB-180644] | EC50 ([5]; Homo sapiens, HCT-116): > 1000 nM; EC50 ([6]; Homo sapiens, NCI-H82): > 1000 nM
29 | 10 to 100 nM | – | CC[C@@H]1C(=O)N(C)c2cnc(Nc3ccc(C(=O)NCCOCCNCCCCC(=O)Nc4cccc5c4CN(C4CCC(=O)NC4=O)C5=O)cc3OC)nc2N1Cc1ccc(Br)cc1 (stereo partly drawn) [UB-180645] | EC50 ([5]; Homo sapiens, HCT-116): 100 to 1000 nM; EC50 ([6]; Homo sapiens, NCI-H82): > 1000 nM
